Test results published in patent US11994511B2, “Biomarkers indicative of prostate cancer and treatment thereof” (UNIVERSITY OF MIAMI, priority 2017, dated 2024).

Tests used:
Assay type in all cases: cell-based, human
C4-2B cells = experiment: Cell proliferation (cell confluence, Incucyte Zoom), CRPC cell line C4-2B; details: 72 hours; DOX 100 ng/mL [184 nM], N-9 200 ng/mL [613 nM]; 10% CSS; vs vehicle (DMSO)
Method: (§4) Cell confluence was monitored using Incucyte Zoom System and the experiments were done with eight replicates each. […] FIG. 4B: The non-tumorigenic prostate epithelial cell line RWPE1, the AR-null PC cell line PC3, and the CRPC cell lines C4-2B and 22Rv1 were treated for 72 hours with vehicle (DMSO), DOX (100 ng/mL [184 nM]), N-9 (200 ng/mL [613 nM]), or the combination of DOX (100 ng/mL [184 nM]) and N-9 (200 ng/mL [613 nM]). C4-2B and 22Rv1 cells were kept in 10% CSS media. Cell confluence was monitored using the Incucyte Zoom System. […] Cell confluence was monitored using the Incucyte Zoom System.
(§5) FIG. 19: The non-tumorigenic prostate epithelial cell line RWPE1, the AR-null PC cell line PC3, the CRPC cell lines C4-2B and 22Rvl and androgen dependent cell line LNCaP were treated for 72 hours with vehicle (DMSO), DOX (100 ng/mL [184 nM]), N-9 (200 ng/mL [613 nM]), or the combination of DOX (100 ng/mL [184 nM]) and N-9 (200 ng/mL [613 nM]). […] Cell confluence was monitored using the Incucyte Zoom System. […]
(§6) Cell proliferation: For growth assay, cells were plated in 96-well plates at 5,000 cells/well (for RWPE-1), or 7,500 cells/well (for 22Rvl, C4-2B, PC3), in 6-12 replicates. […] The Incucyte Zoom software was used to analyzed and graph the results.

22Rv1 cells = experiment: Cell proliferation (cell confluence, Incucyte Zoom) and Compusyn combination index, CRPC cell line 22Rv1; details: 72 hours; DOX 100 ng/mL [184 nM], N-9 200 ng/mL [613 nM]; 10% CSS; vs vehicle (DMSO)
Method: FIG. 4A: The CRPC cell line 22Rv I was cultured in 2% CSS media and was treated for 72 hours with vehicle (DMSO), doxorubicin (DOX), N9-isopropylolomoucine (N-9), or the combination of DOX and N-9 at different concentrations. Cell confluence was monitored using Incucyte Zoom System and the experiments were done with eight replicates each. The data were analyzed using Compusyn software, and a normalized isobologram was built. […] CI=1 represents additivity, CI<1 synergism, and Cl>1 antagonistic effects. […] Cell confluence was monitored using the Incucyte Zoom System. […] Cell confluence was monitored using the Incucyte Zoom System. […]
as §6
To test whether inhibition of this network decreased CRPC cell proliferation, we used doxoruhicin (DOX), which inhibits TOP2A (Tacar et al., 201.3), and N9-isopropylolomoucine (N-9), which targets CCNB 1/CDK1 (Havlicek et al, 1997). […] The normalized isohologram and combination index (CI) were built and determined using Compusyn software.

PC3 cells = experiment: Cell proliferation (cell confluence, Incucyte Zoom), AR-null PC cell line PC3; details: 72 hours; DOX 100 ng/mL [184 nM], N-9 200 ng/mL [613 nM]; vs vehicle (DMSO)
Method: as §4, §5, §6

RWPE-1 cells = experiment: Cell proliferation (cell confluence, Incucyte Zoom), non-tumorigenic prostate epithelial cell line RWPE-1; details: 72 hours; DOX 100 ng/mL [184 nM], N-9 200 ng/mL [613 nM]; vs vehicle (DMSO)
Method: as §4, §5, §6

[1] = system: seven gene set (KIF20A, KIF23, TOP2A, CCNB1, CCNB2, BUB1, BUB1b) expression in LNCaP cells; experiment: qPCR expression of the seven gene set after androgen (R1881) stimulation, LNCaP; details: R1881 0.1 nM, 16 hours, vs vehicle
Method: (§1) LNCaP and 22Rv1 cells were seeded and 24 hours later were rinsed twice with PBS and incubated in serum free media for one hour. The cells were then incubated in media containing vehicle or R1881 (0.1 nM) for 16 hours prior to RNA extraction and qPCR analysis. FKBP5 was used as a positive control. Data represent one or two independent experiments, performed in biological triplicates, showing the mean±s.e.m., and normalized to vehicle control. Significant at a p value, ** p value<0.01, *** p value<0.001.
(§2) RNA isolation and reverse transcriptase quantitative RT-qPCR: Total RNA was collected using Trizol according to the manufacturer's protocol (Life Technologies), and isolated using Direct-zol RNA MiniPrep Plus (Zymo Research, Catalog number R2072). Total RNA was reverse transcribed using a cDNA ReverseTranscription kit (Applied Biosystems, Catalog number 4368814) as per the manufacturer's protocol. TaqMan probes from Applied Biosystems for FKBP5 (Hs01561006 ml), UBE2C (Hs00964100 gl), KIF20A (Hs00993573 ml), KIF23 (Hs00370852 ml), TOP2A (Hs01032137 ml), CCNB1 (Hs01030099 ml), CCNB2 (Hs01084593 gl), BUB1 (Hs01557695 ml), BUBlb (Hs01084828 ml) and GAPDH (Hs02786624 gl) were used.
(§3) Because of the overlapping transcriptomes of full length AR and AR-V7, we examined whether full length AR also regulated the seven gene set.

[2] = system: seven gene set (KIF20A, KIF23, TOP2A, CCNB1, CCNB2, BUB1, BUB1b) expression in 22Rv1 cells; experiment: qPCR expression of the seven gene set after androgen (R1881) stimulation, 22Rv1; details: 22Rv1, R1881 0.1 nM, 16 hours, vs vehicle
Method: as §1, §2, §3

| SMILES | Effect on proliferation of C4-2B (C4-2B cells) | Effect on proliferation of 22Rv1 (22Rv1 cells) | Effect on proliferation of PC3 (PC3 cells) | Effect on proliferation of RWPE-1 (RWPE-1 cells) | Regulation of expression of the seven genes (qPCR) [1] | Regulation of expression of the seven genes (qPCR) [2] |
| --- | --- | --- | --- | --- | --- | --- |
| COc1cccc2c1C(=O)c1c(O)c3c(c(O)c1C2=O)C[C@@](O)(C(=O)CO)C[C@@H]3O[C@H]1C[C@H](N)[C@H](O)[C@H](C)O1 [DOX, Doxorubicin] | no significant effect | no significant effect | no significant effect | no significant effect | – | – |
| CC(C)n1cnc2c(NCc3ccccc3)nc(NCCO)nc21 [N-9, N9-Isopropylolomoucine] | no significant effect | no significant effect | no significant effect | no significant effect | – | – |
| C[C@]1(O)CC[C@H]2[C@@H]3CCC4=CC(=O)CCC4=C3C=C[C@@]21C [R1881, methyltrienolone] | – | – | – | – | None of the seven genes are regulated | None of the seven genes are regulated |
